Data set [1] relates to Rattus norvegicus. In words: Toxicity in Sprague-Dawley rat assessed as change in body weight at 1000 mg/kg, po after 14 days (reference value: 199.1 +/- 4.8 g). In kind it is organism-based. Set-up: dose 1000 mg/kg, route oral. As to conditions: in vivo, 336 h.
A short description of data set [2]: Acute toxicity in po dosed Sprague-Dawley rat assessed as mortality after 14 days. Type of data set: organism-based. As to conditions: in vivo.
Data set [3] has as its system Rattus norvegicus. In words: Toxicity in Sprague-Dawley rat assessed as change in body weight at 1000 mg/kg, po after 1 day (reference value: 130.6 +/- 4.6 g). Type of data set: organism-based. Set-up: dose 1000 mg/kg, route oral. As to conditions: in vivo, 24 h.
The target in data set [4] is hERG (KCNH2) (Homo sapiens, UniProt Q12809). As to the kind of experiment: Inhibition of human ERG in HEK293 cells at 10 uM by patch clamp assay relative to control. Type of data set: cell-based. As to conditions: HEK293 cells expressing human ERG. In general terms: In patch-clamp work, channel activity is measured electrically.
Sequence of hERG (KCNH2) (Q12809 whole entry): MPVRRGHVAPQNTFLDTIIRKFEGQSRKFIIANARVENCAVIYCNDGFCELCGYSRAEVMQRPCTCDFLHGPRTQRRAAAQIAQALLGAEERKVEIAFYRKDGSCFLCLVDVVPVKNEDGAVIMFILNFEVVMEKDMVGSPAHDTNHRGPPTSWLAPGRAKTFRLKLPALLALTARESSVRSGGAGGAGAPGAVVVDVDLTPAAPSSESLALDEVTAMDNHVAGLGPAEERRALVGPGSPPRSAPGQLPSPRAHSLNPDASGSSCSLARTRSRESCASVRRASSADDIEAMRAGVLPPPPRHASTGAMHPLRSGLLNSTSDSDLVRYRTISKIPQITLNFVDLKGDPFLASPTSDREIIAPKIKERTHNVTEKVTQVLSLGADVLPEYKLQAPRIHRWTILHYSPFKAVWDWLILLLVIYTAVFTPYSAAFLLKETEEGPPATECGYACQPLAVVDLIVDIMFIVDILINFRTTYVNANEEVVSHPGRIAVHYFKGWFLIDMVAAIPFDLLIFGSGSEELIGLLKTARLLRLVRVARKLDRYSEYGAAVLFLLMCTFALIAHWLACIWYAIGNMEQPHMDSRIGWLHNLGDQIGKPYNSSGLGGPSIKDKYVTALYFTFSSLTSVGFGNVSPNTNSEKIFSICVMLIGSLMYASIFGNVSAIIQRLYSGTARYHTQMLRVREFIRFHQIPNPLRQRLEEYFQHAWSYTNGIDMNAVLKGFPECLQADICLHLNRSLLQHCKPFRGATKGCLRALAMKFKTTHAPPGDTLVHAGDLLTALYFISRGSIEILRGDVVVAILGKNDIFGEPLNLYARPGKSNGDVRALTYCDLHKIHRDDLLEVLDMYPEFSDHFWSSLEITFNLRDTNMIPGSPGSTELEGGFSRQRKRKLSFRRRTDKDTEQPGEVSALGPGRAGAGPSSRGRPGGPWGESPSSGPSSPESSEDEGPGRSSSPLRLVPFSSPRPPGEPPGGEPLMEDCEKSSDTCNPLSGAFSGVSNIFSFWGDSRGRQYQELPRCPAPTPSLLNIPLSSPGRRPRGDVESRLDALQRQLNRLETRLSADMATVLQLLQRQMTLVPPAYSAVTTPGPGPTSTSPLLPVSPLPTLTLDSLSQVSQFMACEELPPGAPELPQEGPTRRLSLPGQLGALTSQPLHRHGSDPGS
In data set [5] the test system is Rattus norvegicus. In words: Toxicity in Sprague-Dawley rat assessed as change in body weight at 1000 mg/kg, po after 5 days (reference value: 148.4 +/- 3.2 g). In kind it is organism-based. Set-up: dose 1000 mg/kg, route oral. As to conditions: in vivo, 120 h.
Data set [6] concerns Mus musculus. In words: Ratio of drug level in brain to plasma in ICR mouse at 10 mg/kg, iv […]. As to conditions: in vivo.
The subject of data set [7] is Rattus norvegicus. As to the kind of experiment: Toxicity in Sprague-Dawley rat assessed as change in body weight at 2000 mg/kg, po after 14 days (reference value: 199.1 +/- 4.8 g). In kind it is organism-based. Set-up: dose 2000 mg/kg, route oral. As to conditions: in vivo, 336 h.
A short description of data set [8]: Half life in ICR mouse plasma at 10 mg/kg, iv. In kind it is ADME, organism-based. Set-up: dose 10 mg/kg, route intravenous.
A short description of data set [9]: Cmax in ICR mouse plasma at 20 mg/kg, po. Type of data set: ADME, organism-based. More on the design: dose 20 mg/kg, route oral.
The subject of data set [10] is Rattus norvegicus. In words: Toxicity in Sprague-Dawley rat assessed as change in body weight at 2000 mg/kg, po after 1 day (reference value: 130.6 +/- 4.6 g). Type of data set: organism-based. More on the design: dose 2000 mg/kg, route oral. As to conditions: in vivo, 24 h.
The subject of data set [11] is Rattus norvegicus. In words: Toxicity in Sprague-Dawley rat assessed as change in body weight at 500 mg/kg, po after 10 days (reference value: 175.9 +/- 5.1 g). Type of data set: organism-based. More on the design: dose 500 mg/kg, route oral. As to conditions: in vivo, 240 h.
Data set [12] is described as follows: Half life in ICR mouse plasma at 20 mg/kg, po. In kind it is ADME, organism-based. More on the design: dose 20 mg/kg, route oral.
Data set [13] deals with Amyloid-beta precursor protein (Homo sapiens) (UniProt P05067). As to the kind of experiment: Inhibition of amyloid beta (1-42) fibril aggregation (unknown origin) at 100 uM after 20 hrs by transmission electron microscopic analysis.
Sequence of Amyloid-beta precursor protein (Homo sapiens) (P05067 whole entry): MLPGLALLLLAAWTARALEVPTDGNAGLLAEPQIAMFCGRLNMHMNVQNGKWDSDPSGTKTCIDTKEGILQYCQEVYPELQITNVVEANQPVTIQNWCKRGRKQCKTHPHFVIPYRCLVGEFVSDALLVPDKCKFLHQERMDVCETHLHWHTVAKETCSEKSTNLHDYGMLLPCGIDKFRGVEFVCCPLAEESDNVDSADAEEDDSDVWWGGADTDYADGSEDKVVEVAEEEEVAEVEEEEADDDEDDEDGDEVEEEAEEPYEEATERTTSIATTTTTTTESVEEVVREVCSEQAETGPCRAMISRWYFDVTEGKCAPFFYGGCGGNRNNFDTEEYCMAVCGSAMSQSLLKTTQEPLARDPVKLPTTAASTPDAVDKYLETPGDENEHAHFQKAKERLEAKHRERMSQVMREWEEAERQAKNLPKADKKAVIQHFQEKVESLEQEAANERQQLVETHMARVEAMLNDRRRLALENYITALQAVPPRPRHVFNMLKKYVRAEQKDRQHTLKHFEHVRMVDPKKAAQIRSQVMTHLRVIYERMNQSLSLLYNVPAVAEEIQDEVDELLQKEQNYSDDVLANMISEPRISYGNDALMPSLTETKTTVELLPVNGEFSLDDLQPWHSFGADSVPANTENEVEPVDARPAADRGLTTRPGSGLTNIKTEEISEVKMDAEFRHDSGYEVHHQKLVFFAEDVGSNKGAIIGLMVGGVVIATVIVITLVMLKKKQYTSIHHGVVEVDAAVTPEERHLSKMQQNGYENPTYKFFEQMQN
Data set [14] is described as follows: AUC (0 to 24 hrs) in ICR mouse brain at 10 mg/kg, iv. In kind it is ADME, organism-based. Set-up: time < 24 hr, dose 10 mg/kg, route intravenous.
The nature of data set [15]: AUC (0 to 24 hrs) in ICR mouse plasma at 20 mg/kg, po. In kind it is ADME, organism-based. More on the design: time < 24 hr, dose 20 mg/kg, route oral.
The nature of data set [16]: Cmax in ICR mouse plasma at 10 mg/kg, iv. In kind it is ADME, organism-based. Set-up: dose 10 mg/kg, route intravenous.
A short description of data set [17]: Tmax in ICR mouse brain at 20 mg/kg, po. Type of data set: ADME, organism-based. More on the design: dose 20 mg/kg, route oral.
The subject of data set [18] is Rattus norvegicus. In words: Toxicity in Sprague-Dawley rat assessed as change in body weight at 500 mg/kg, po after 1 day (reference value: 130.6 +/- 4.6 g). In kind it is organism-based. As to conditions: in vivo, 24 h. More on the design: dose 500 mg/kg, route oral.
The nature of data set [19]: Apparent permeability from apical to basolateral side in mouse bEND.3 /rat C6 co-culture cell model after 1 hr by Transwell assay. Type of data set: ADME.
A short description of data set [20]: Cmax in ICR mouse brain at 10 mg/kg, iv. More on the design: dose 10 mg/kg, route intravenous. Type of data set: ADME, organism-based.
Data set [21] is described as follows: Cmax in ICR mouse brain at 20 mg/kg, po. Set-up: dose 20 mg/kg, route oral. In kind it is ADME, organism-based.
Data set [22] deals with Rattus norvegicus. As to the kind of experiment: Toxicity in Sprague-Dawley rat assessed as change in body weight at 500 mg/kg, po after 5 days (reference value: 148.4 +/- 3.2 g). Type of data set: organism-based. More on the design: dose 500 mg/kg, route oral. As to conditions: in vivo, 120 h.
Data set [23] in a line: Tmax in ICR mouse brain at 10 mg/kg, iv. More on the design: dose 10 mg/kg, route intravenous. Type of data set: ADME, organism-based.
Data set [24] deals with Mus musculus. In words: Cognitive enhancing effect in amyloid beta (1-42) infused ICR mouse assessed as increase in alternation behavior at 30 mg/kg/day, ip administered 1 day prior to amyloid beta (1-42) infusion and continued for 6 days measured on day 6 by Y-maze test (reference value: 64.1%). As to conditions: route intraperitoneal. In kind it is functional.
Data set [25] relates to Rattus norvegicus. As to the kind of experiment: Toxicity in Sprague-Dawley rat assessed as change in body weight at 500 mg/kg, po after 14 days (reference value: 199.1 +/- 4.8 g). Type of data set: organism-based. More on the design: dose 500 mg/kg, route oral. As to conditions: in vivo, 336 h.
Data set [26] can be described thus: Tmax in ICR mouse plasma at 20 mg/kg, po. Type of data set: ADME, organism-based. More on the design: dose 20 mg/kg, route oral.
Data set [27] relates to Rattus norvegicus. As to the kind of experiment: Toxicity in Sprague-Dawley rat assessed as change in body weight at 2000 mg/kg, po after 5 days (reference value: 148.4 +/- 3.2 g). In kind it is organism-based. As to conditions: in vivo, 120 h. More on the design: dose 2000 mg/kg, route oral.
A short description of data set [28]: Oral bioavailability in ICR mouse at 20 mg/kg. In kind it is ADME, organism-based. As to conditions: in vivo.
The nature of data set [29]: AUC (0 to 24 hrs) in ICR mouse brain at 20 mg/kg, po. In kind it is ADME, organism-based. More on the design: time < 24 hr, dose 20 mg/kg, route oral.
Data set [30] concerns Rattus norvegicus. In words: Toxicity in Sprague-Dawley rat assessed as change in body weight at 2000 mg/kg, po after 10 days (reference value: 175.9 +/- 5.1 g). Type of data set: organism-based. Set-up: dose 2000 mg/kg, route oral. As to conditions: in vivo, 240 h.
A short description of data set [31]: Half life in ICR mouse brain at 20 mg/kg, po. Set-up: dose 20 mg/kg, route oral. In kind it is ADME, organism-based.
Data set [32] is described as follows: Half life in ICR mouse brain at 10 mg/kg, iv. In kind it is ADME, organism-based. Set-up: dose 10 mg/kg, route intravenous.
The nature of data set [33]: Tmax in ICR mouse plasma at 10 mg/kg, iv. Type of data set: ADME, organism-based. More on the design: dose 10 mg/kg, route intravenous.
Data set [34] deals with Rattus norvegicus. As to the kind of experiment: Toxicity in Sprague-Dawley rat assessed as change in body weight at 1000 mg/kg, po after 10 days (reference value: 175.9 +/- 5.1 g). Type of data set: organism-based. Set-up: dose 1000 mg/kg, route oral. As to conditions: in vivo, 240 h.
Data set [35] has as its system Mus musculus. In words: Ratio of drug level in brain to plasma in ICR mouse at 20 mg/kg, po […]. As to conditions: in vivo.
A short description of data set [36]: AUC (0 to 24 hrs) in ICR mouse plasma at 10 mg/kg, iv. In kind it is ADME, organism-based. More on the design: time < 24 hr, dose 10 mg/kg, route intravenous.
Data set [37] deals with Rattus norvegicus. In words: Acute toxicity in Sprague-Dawley rat assessed as mortality at 500 to 2000 mg/kg, po after 14 days. In kind it is organism-based. As to conditions: in vivo, 336 h. Set-up: dose 500-2000 mg/kg, route oral.

The record followed here is ChEMBL document CHEMBL2385022, “Therapeutic and pharmacokinetic characterizations of an anti-amyloidogenic bis-styrylbenzene derivative for Alzheimer's disease treatment” (Bioorg Med Chem Lett, 2013).

Activity calls are given as the source filed them. No cut-off for these calls is given here.

For orientation: LD50 means the dose expected to kill half of the subjects tested. What is called inhibition is the share of the control response that was lost under treatment. For orientation: half-life means the time in which the quantity being followed falls by half. In general, Cmax refers to the peak of the concentration-time curve. What is called AUC(0-t) is the area under the concentration-time curve up to a stated or last time point. A lower AUC(0-t) goes with low exposure. Broadly, the Tmax is the time at which the peak concentration occurs. The Papp A→B is the apparent permeability from the apical to the basolateral side of a cell layer. The bioavailability is dose-corrected exposure relative to a reference, in per cent. Lower therefore signals little systemic uptake. As to `COc1cc(/C=C/c2cccc(/C=C/c3ccc(N(C)C)c(OC)c3)c2)ccc1N(C)C`, the Activity in [1] is 182.2 g; in data set [3] it was 132 g; in [5], 138.9 g; in data set [7] it was 174.6 g; in [10] it was 132.4 g; in [11], 164.1 g. Besides, the Activity was 131.5 g in data set [18]; 142.6 g in data set [22]; 70% in data set [24]; 183.9 g in data set [25]; 128.3 g in [27]; 157.8 g in data set [30]. In addition, the Activity in data set [34] stood at 164.2 g. Besides, the median lethal dose (LD50) at 336 h in data set [2] was > 2000 mg/kg. Testing at 10 µM in data set [4] gave an inhibition of 14%. Further, the values for the Drug uptake in data set [6] and in data set [35] were 26% and 15%, respectively. Also, the half-life in [8] was 7.3 h; in data set [12], 9.4 h; in data set [31], 14.5 h; in data set [32] it was 6.04 h. Further, the Cmax was found to be 3490 ng/mL in data set [9], 13100 ng/mL in data set [16], 1410 ng/mL in [20] and 395 ng/mL in data set [21]. The inhibition entry in data set [13] is “Active”. The exposure AUC(0-t) at 24 h in [14] is 8100 ng·h/mL; in data set [15], 29200 ng·h/mL; in data set [29] it was 4530 ng·h/mL; in data set [36], 31600 ng·h/mL. The Tmax in [17] was 4.7 h; in data set [23], 0.4 h; in data set [26], 1 h; in [33], 4.8 min. The apical-to-basolateral permeability (Papp A→B) at 1 h in data set [19] worked out at 670 ×10⁻⁶ cm/s. The bioavailability in data set [28] is 46.2%.
As for `COc1cc(/C=C/C(=O)CC(=O)/C=C/c2ccc(O)c(OC)c2)ccc1O`, the inhibition result in [13] was “Active”.
As to `NCCCS(=O)(=O)O` [TRAMIPROSATE], the Activity in data set [1] is given as 195.4 g; in data set [3] it was 131.1 g; in [5], 149.6 g; in data set [7], 194.3 g; in [10] it was 131.4 g; in [11] it was 167.2 g. Further, the Activity result in data set [37] is reported as “Non-toxic”; in [18], 130.7 g; in data set [22] it was 145.3 g; in data set [24] it was 67.3%; in data set [25], 188 g; in [27], 147.2 g. Besides, the Activity was determined as 171.5 g in data set [30] and 174.7 g in [34]. Moreover, 10 µM produced 18% inhibition in data set [4].
As to `COC(=O)c1ccccc1-c1c2ccc(=N)cc-2oc2cc(N)ccc12.Cl` [RHODAMINE123], in data set [19], the apical-to-basolateral permeability (Papp A→B) at 1 h worked out at 32 ×10⁻⁶ cm/s.
Turning to `CNc1ccc(/C=C/c2cccc(/C=C/c3ccc(NC)c(OC)c3)c2)cc1OC`, the Activity entry in data set [37] is reported as “Non-toxic”.
